From patent US20080112915A1, “Dna Delivery with Gemini Cationic Surfactants” (priority 2003, published 2008)

Legend:
[1] = cited from earlier work; for Γ × 10^6 (surface excess concentration): from Alami et al., 1993; for CMC (critical micellar concentration) / a (head group areas based on activity) / α (degree of micelle ionization): from Wettig et al., 2001; for Krafft point: from Zana; for Krafft point / distance between the cationic head groups: 2002; for distance between the cationic head groups: estimated, Chen et al.
PAM212 cells [2] = assay: Transfection of PAM212 cells with pGTmCMV.IFN-GFP plasmid using gemini cationic surfactants and DOPE; IFNγ by ELISA; type: cell-based, murine; settings: for IFN-γ expression: PAM212 cells, pGTmCMV.IFN-GFP, plasmid-gemini surfactant charge ratio 1:10 in 1 mM DOPE vesicles; for IFNγ levels versus the other compounds with longer linkers: p<0.001; for transfection efficiency (in words): dependence on spacer length, charge ratio 1:10, DOPE
Protocol: The pGTmCMV.IFN-GFP plasmid was used at a concentration of 0.2 μg/well for transfection. Eight gemini surfactants were tested in this study (FIG. 1) (Wettig et al., 2001). Aqueous solutions (1.5 mM) of the gemini cationic surfactants were prepared and filtered through 0.2 μm Acrodisc® filters (Pall Gelman, Ann Arbor, Mich.). Lipid vesicles were prepared by using sonication techniques. 1,2 dioleyl-sn-glycero-phosphatidylethanolamine (DOPE) (Avanti Polar Lipids, Alabaster, Ala.) and α-tocopherol (Spectrum, Gardena Calif.) in 1:0.2 weight ratios were dissolved in 100% ethanol (Commercial Alcohols Inc., Brampton, ON) at a concentration of 10 mg lipid/mL in a round bottom flask. The solvent was evaporated in a rotary evaporator (Rotavapor RE111 BÜCHI Laboratoriums-Technik AG, Switzerland) at 100 rpm and 55° C. to deposit a thin film on the walls of the vessel. To remove traces of organic solvent, the lipid was lyophilized overnight. Glass beads were added to the flask and the lipid was resuspended at 1 μmol/mL concentration in 9.25% w/v isotonic sucrose (Spectrum, Gardena, Calif.) solution (pH 9). The suspensions were bath-sonicated (Branson 2200, Cleansonic Orange, Va.) for 3 hours at 55° C., followed by filtration through 0.45 μm Acrodisc® filters. PAM 212 murine keratinocyte cells were prepared for transfection as described earlier.
The transfection mixtures were prepared as follows: 0.2 μg of plasmid was mixed with aliquots of gemini surfactant solution to obtain plasmid DNA:gemini surfactant charge ratios of 1:5, 1:10, 1:20 or 1:40 and incubated at room temperature for 15 minutes. To this mixture, 25 μL of DOPE liposomes were added. The transfection mixtures were incubated for 30 minutes at room temperature prior to transfection and added to the cells, dropwise. The plates were incubated for periods of 5 or 6-24 hours at 37° C. in a CO2 incubator. The transfection mix was replaced with supplemented MEM and the plates further incubated for 24 hours. The supernatants were collected and stored at −20° C. As a positive control, the cells were transfected with Lipofectamine Plus™ Reagent, as described above.
ELISAs were performed using round bottom 96-well plates (Immulon II, Dynatech Laboratories, Chantilly, Va.). The plates were coated with 50 μL/well of capture antibody, rat anti-mouse IFNγ (Pharmingen, Mississauga, ON) 2 μg/mL coating buffer and incubated for 24 hours at 4° C. The wells were blocked with 1% bovine serum albumin (BSA) (New England Biolabs, Mississauga, ON) solution in PBS at room temperature for one hour. IFNγ standard (Pharmingen) of 250-2000 pg/mL concentration and was used in 1% BSA solution on plates. Protein resuspension buffer was used as a blank control. The supernatants from cell cultures and the skin and lymph homogenates, as well as the serum from mice, were diluted one in four on the plates and incubated overnight at 4° C. Biotinylated rat anti mouse IFNγ (Pharmingen) was added at […] concentration in 1% BSA solution. The plates were incubated for a further 2 h at room temperature. The streptavidin-alkaline phosphatase conjugate (Jackson Immuno Research Laboratories, Inc., West Grove, Pa.) was added in 1:5000 dilution and incubated for 1 h at room temperature, followed by addition of 4-nitrophenyl phosphate di(tris) salt 1 mg/mL in PNPP buffer (1% diethanolamine, 0.5 mM MgCl2, pH 9.8) (Sigma). Optical density of the samples was measured at 405 nm using a Benchmark Microplate Reader (BioRad, Mississauga, ON). The concentration of the IFNγ vas calculated from the standard IFNγ curve, using recombinant murine IFNγ (Pharmingen).

PAM212 cells [3] = assay: FACS of transfected PAM212 cells: GFP fluorescent cells and cell viability; type: cell-based, murine
Protocol: PAM212 cells were seeded on 6-well plates (Costar, Corning N.Y.) at a density of 1×10^6 cells/well density and grown to 60-80% confluency. The supplemented MEM was changed to MEM one hour prior to transfection. The transfection mixes were prepared with 1 μg pGTmCMV.IFN-GFP, using the 16-3-16 gemini cationic surfactant and DOPE liposomes at plasmid DNA:gemini cationic surfactant charge ratio of 1:5, 1:10, 1:20 or 1:40, as described earlier, keeping the concentration of the reagents constant. The cells were detached using Versene solution containing 0.05% trypsin (Sigma), pelleted at 4° C. and 1000 g for 5 minutes, washed twice with PBS and resuspended in Fa-cola (10 mM PBS pH 7.2, 0.2% gelatin, 0.03% sodium azide). Triplicate samples were pooled. The cell sorter was calibrated with non-transfected cells and 10^4 cells of each sample were counted.
The formulations were optimized for plasmid DNA:gemini surfactant charge ratio correlated with cell toxicity using the 16-3-16 compound. The optimal plasmid DNA:gemini surfactant charge ratio was determined by comparing the percentage of fluorescent cells (FIG. 5A) with cell viability (FIG. 5B). The cells were transfected with either transfection mixtures of the 16-3-16 gemini surfactant and DOPE at plasmid DNA:gemini surfactant charge ratio of 1:5, 1:10, 1:20 or 1:40, or Lipofectamine Plus™ Reagent (L), using 0.2 μg pGTmCMV.IFN-GFP, and compared to non-transfected cells (NT). Triplicate samples were pooled and 1×10^4 cells counted. […] At plasmid DNA:gemini surfactant charge ratio of 1:40 the transfection efficiency was 3.13%, however, cell viability fell to 20%. […] No fluorescence was detected in the non-transfected cells.

[4] = plasmid DNA:gemini surfactant charge ratio 1:40, with DOPE
[5] = plasmid:gemini surfactant charge ratio 1:10, with DOPE

SMILES | Γ × 10^6 (surface excess concentration) [1] | CMC (critical micellar concentration) [1] | a (head group areas based on activity) [1] | α (degree of micelle ionization) [1] | Krafft point [1] | IFN-γ expression (PAM212 cells [2]) | IFNγ levels versus the other compounds with longer linkers (PAM212 cells [2]) | IFNγ detection after transfection with single component alone (PAM212 cells [2]; agent alone, or plasmid without transfection agents) | distance between the cationic head groups [1] | transfection efficiency (in words) (PAM212 cells [2]) | cell viability (PAM212 cells [3]; [4]) | transfection efficiency (fluorescent cells) (PAM212 cells [3]; [4]) | cell viability (PAM212 cells [3]; [5]) | percentage of fluorescent cells (PAM212 cells [3]; [5])
CCCCCCCCCCCC[N+](C)(C)CCCCCCCCCCCC[N+](C)(C)CCCCCCCCCCCC [12-12-12] | 0.73 mol/m^2 | 0.36 ± 0.03 mM | 2.14 nm^2/molecule | 0.56 ± 0.08 | 13.6 °C | 0.33 ± 0.16 ng/5 × 10^5 cells |  |  |  |  |  |  |  | 
CCCCCCCCCCCC[N+](C)(C)CCCC[N+](C)(C)CCCCCCCCCCCC.[Br-].[Br-] [12-4-12] | 1.43 mol/m^2 | 1.17 ± 0.04 mM | 1.10 nm^2/molecule | 0.26 ± 0.02 | 10.6 °C | 0.66 ± 0.32 ng/5 × 10^5 cells | Significantly higher |  |  |  |  |  |  | 
CCCCCCCCCCCC[N+](C)(C)CCCCCCCCCC[N+](C)(C)CCCCCCCCCCCC.[Br-].[Br-] [12-10-12] | 0.75 mol/m^2 | 0.62 ± 0.03 mM | 2.16 nm^2/molecule | 0.51 ± 0.06 | <0 °C | 0.29 ± 0.10 ng/5 × 10^5 cells |  |  |  |  |  |  |  | 
CCCCCCCC/C=C\CCCCCCCC(=O)OC[C@H](COP(=O)(O)OCCN)OC(=O)CCCCCCC/C=C\CCCCCCCC [DOPE, 1,2 dioleyl-sn-glycero-phosphatidylethanolamine, reference compound] |  |  |  |  |  |  |  | No IFNγ was detected |  |  |  |  |  | 
CCCCCCCCCCCC[N+](C)(C)CCCCCCCCCCCCCCCC[N+](C)(C)CCCCCCCCCCCC.[Br-].[Br-] [12-16-12] | 0.83 mol/m^2 | 0.12 ± 0.01 mM | 1.44 nm^2/molecule | 0.59 ± 0.08 | 24.3 °C | 0.49 ± 0.19 ng/5 × 10^5 cells |  |  |  |  |  |  |  | 
CCCCCCCCCCCC[N+](C)(C)CCC[N+](C)(C)CCCCCCCCCCCC.[Br-].[Br-] [12-3-12] | 1.58 mol/m^2 | 0.98 ± 0.04 mM | 0.98 nm^2/molecule | 0.23 ± 0.02 | 12.7 °C | 1.11 ± 0.65 ng/5 × 10^5 cells | Significantly higher |  | 0.49 nm | highest activity |  |  |  | 
CCCCCCCCCCCCCCCC[N+](C)(C)CCC[N+](C)(C)CCCCCCCCCCCCCCCC [16-3-16] | 1.08 mol/m^2 | 0.026 ± 0.001 mM | 1.02 nm^2/molecule | 0.35 ± 0.02 | 42 °C | 1.63 ± 1.37 ng/5 × 10^5 cells | Significantly higher |  |  | highest activity | 20% | 3.13% | 74% | 2.36%
CCCCCCCCCCCC[N+](C)(C)CCCCCC[N+](C)(C)CCCCCCCCCCCC.[Br-].[Br-] [12-6-12] | 1.16 mol/m^2 | 1.09 ± 0.04 mM | 1.40 nm^2/molecule | 0.34 ± 0.02 | <0 °C | 0.48 ± 0.17 ng/5 × 10^5 cells |  |  | 0.91 nm |  |  |  |  | 
CCCCCCCCCCCC[N+](C)(C)CCCCCCCC[N+](C)(C)CCCCCCCCCCCC.[Br-].[Br-] [12-8-12] | 0.94 mol/m^2 | 0.84 ± 0.03 mM | 1.78 nm^2/molecule | 0.46 ± 0.04 | <0 °C | 0.24 ± 0.12 ng/5 × 10^5 cells |  |  |  |  |  |  |  | 
